Where two headings read alike, the source gives them in different places. Numbered stars: 1 amine (or outer) side, 2 acyl side, 3 side chain; on linkers, the order of the positions; unused ones are H or OH. Bridge positions count the residues as written; N and C are the ends. Square brackets hold non-standard residues; d marks the D form. Ends that are not written are not given here. Peptide text beside a SMILES is read from it. I, II: the chains in the order shown. CO(CH2CH2O)13CH2CH2CO = O=C(CCOCCOCCOCCOCCOCCOCCOCCOCCOCCOCCOCCOCCOCCC(=O)[*:2])[*:1]; CO(CH2CH2O)9CH2CH2CO = O=C(CCOCCOCCOCCOCCOCCOCCOCCOCCOCCC(=O)[*:2])[*:1]; NMeE = CN[C@@H](CCC(=O)O)C(=O)O
What was measured:
PDZ2 of PSD-95 = molecular target: T1, PDZ2 of PSD-95 (Homo sapiens, UniProt P78352); experiment: FP heterologous competition binding assay; details: for affinity to PDZ2, in words: FP assay; for Ki: FP competition, mean ± SEM, NA = no activity/affinity
T1 construct: PDZ2 (residues 155-249); made in house; host or cells: E. coli BL21-DE3 pLysS
Description: (§1) Determined IC50 values may be converted to Ki values.^5 Suitable fluorophores include either 5-FAM or Cy5, which may be coupled to a tripeptide (KSG or CSG) linker attached to the N-terminus of the undecapeptide, to give 5-FAM-NR2B, Cy5-NR2B, 5-FAM-CRIPT and Cy5-CRIPT. The 5-FAM fluorophore may be attached to the undecapeptides by coupling with HATU. The Cy5 fluorophore may be conjugated to the undecapeptides by coupling Cy5-maleimide to the cysteine side chain of the tripeptide sequence CSG attached to the N-terminus of the peptide, as detailed in the Methodology section.
(§2) To measure the affinities between non-fluorescent peptides and PDZ domains, heterologous competition bindings assay were performed. This was done by adding increasing concentrations of peptide to a fixed concentration of Cy5-NR2B, 5-FAM-NR2B, Cy5-CRIPT or 5-FAM-CRIPT (50 nM) and PDZ (20 μM for PDZ1, 3 μM for PDZ2 and 1-2 and 5 μM for PDZ3) in the same TBS buffer and conditions as described above. FP values were then fitted to the general equation: Y=Bottom+(Top−Bottom)/[1[…](10̂^X-logIC50)], where X is the logarithmic value of peptide concentration. Hereby the IC50 value was obtained, which is used to calculate the theoretical competitive inhibition constant, Ki.^5
(§3) A convenient and reliable way to examine interactions between peptide analogues and PDZ domains is by using a fluorescence polarization (FP) assay. The three PDZ domains, PDZ1-3, of PSD-95 were expressed individually as set out above, while PDZ1-2 was also expressed as a tandem construct. […] IC50 values were then converted to Ki values.^5

PDZ1 of PSD-95 = molecular target: T2, PDZ1 of PSD-95 (Homo sapiens, UniProt P78352); experiment: FP heterologous competition binding assay; details: for Ki: FP competition, mean ± SEM, NA = no activity/affinity
T2 construct: PSD-95 PDZ1 (residues 61-151); made in house; host or cells: E. coli BL21-DE3 pLysS
Description: as §1, §2, §3

[1] = Human blood plasma stability assay; type: in vitro ADME
Description: In this assay, the half-life (T1/2) of a compound in blood plasma is measured in vitro, whereby its susceptibility to degradation by proteases, peptidases and general plasma contents is quantified.
Compounds of interest were dissolved in human blood plasma (270 μl; 3H Biomedical, Sweden, cat no 1300-1-P50) to a concentration of 0.25 mM (30 μL of 2.5 mM) and incubated at 37° C. Aliquots (30 μl) were removed at various time intervals (0, 5, 10, 20, 40, 80, 160, 320, 960, 1280, 2550, 4560 and 7240 min) and quenched with 60 μL trichloroacetic acid (aq., 5%). The aliquots were vortexed, and incubated for at least 15 min, at 4° C. prior to centrifugation at 18,000 g for 2 min and the supernatant was analyzed by RP-HPLC to quantify the remaining compound (absorbance at 218 nm).

PDZ1-2 tandem of PSD-95 = molecular target: T3, PDZ1-2 tandem of PSD-95 (Homo sapiens, UniProt P78352); experiment: FP heterologous competition binding assay; details: mean ± SEM
T3 construct: PDZ1-2 (residues 61-249) tandem; made in house; host or cells: E. coli BL21-DE3 pLysS
Description: as §1, §2, §3

PDZ3 of PSD-95 = molecular target: T4, PDZ3 of PSD-95 (Homo sapiens, UniProt P78352); experiment: FP heterologous competition binding assay; details: FP competition; mean ± SEM; NA = no activity/affinity
T4 construct: PDZ3 (residues 309-401); made in house; host or cells: E. coli BL21-DE3 pLysS
Description: as §1, §2, §3

[2] = human, plasma, Blood plasma half life (T1/2)

EMeTQV ([NMeE]TQV) [Compound 39]
affinity to PDZ2, in words (PDZ2 of PSD-95): only slightly less potent
fold increase in affinity (more potent) compared to NR2B peptide (1), PDZ1 (PDZ1 of PSD-95): ca. 3 fold

CC(C)[C@H](NC(=O)[C@H](CC(=O)O)NC(=O)[C@H](CO)NC(=O)[C@@H](N)CCC(N)=O)C(=O)O [Compound 29] (H-QSDV-OH)
half-life at […] [1, 2]: 0.283 to 0.917 h

CC[C@H](C)[C@H](NC(=O)CCOCCOCCOCCOCCOCCOCCOCCOCCOCCOCCOCCOCCOCCC(=O)N[C@H](C(=O)N[C@@H](C)C(=O)N[C@H](C(=O)N[C@@H](C)C(=O)N[C@H](C(=O)O)C(C)C)[C@@H](C)O)[C@@H](C)CC)C(=O)N[C@@H](C)C(=O)N[C@H](C(=O)N[C@@H](C)C(=O)N[C@H](C(=O)O)C(C)C)[C@@H](C)O [(IATAV)2PEG12 (87), (IATAV)2PEG12]
half-life at […] [1, 2]: 3.05 h
Ki (PDZ2 of PSD-95): 13 ± 1.1 µM
Ki (PDZ1-2 tandem of PSD-95): 1 ± 0.06 µM

IESDV-PEG4 [IESDV-PEG4 (91)]
fold increase in half life compared to non-pegylated peptide 7 ([1]; human): about 10 fold
Blood plasma half life (T1/2) ([1]; human, plasma): 10 h

CC(C)[C@H](NC(=O)[C@H](CC(=O)O)NC(=O)[C@H](CO)NC(=O)[C@H](CCC(=O)O)NC(=O)CCOCCOCCOCCOCCOCCOCCOCCOCCOCCOCCOCCOCCOCCC(=O)N[C@@H](CCC(=O)O)C(=O)N[C@@H](CO)C(=O)N[C@@H](CC(=O)O)C(=O)N[C@H](C(=O)O)C(C)C)C(=O)O [Compound 84] (I: ESDV-OH / II: ESDV-OH; linker I:N-II:N via CO(CH2CH2O)13CH2CH2CO; C-terminus assumed)
Ki (PDZ2 of PSD-95): 22 ± 0.18 µM

CC(C)[C@H](NC(=O)[C@H](CC(=O)O)NC(=O)[C@H](CO)NC(=O)[C@H](CCC(=O)O)NC(=O)CCOCCOCCOCCOCCOCCOCCOCCOCCOCCC(=O)N[C@@H](CCC(=O)O)C(=O)N[C@@H](CO)C(=O)N[C@@H](CC(=O)O)C(=O)N[C@H](C(=O)O)C(C)C)C(=O)O [Compound 85] (I: ESDV-OH / II: ESDV-OH; linker I:N-II:N via CO(CH2CH2O)9CH2CH2CO; C-terminus assumed)
Ki (PDZ1-2 tandem of PSD-95): 1 ± 0.05 µM

CC(C)[C@H](NC(=O)[C@H](C)NC(=O)[C@@H](NC(=O)[C@H](CCC(=O)O)NCCc1ccc(F)c(F)c1)C(C)O)C(=O)O (some centres unmarked) [Compound 62]
Ki (PDZ2 of PSD-95): 1 ± 0.043 µM
Ki (PDZ1 of PSD-95): ~1 µM

YGRKKRRQRRRKLSSIESDV [Tat-NR2B (3), reference compound] [listing 1 of 2 here]
half-life at […] ([1]; human blood plasma, 37° C., 0.25 mM, read-out: Blood plasma half life (T1/2)): 24.5 h

CC[C@H](C)[C@H](NC(=O)CCOCCOCCOCCOCCOCCOCCOCCOCCOCCC(=O)N[C@H](C(=O)N[C@@H](CCC(=O)O)C(=O)N[C@@H](CO)C(=O)N[C@@H](CC(=O)O)C(=O)N[C@H](C(=O)O)C(C)C)[C@@H](C)CC)C(=O)N[C@@H](CCC(=O)O)C(=O)N[C@@H](CO)C(=O)N[C@@H](CC(=O)O)C(=O)N[C@H](C(=O)O)C(C)C [(IESDV)2PEG8 (76), (IESDV)2PEG8]
degradation in human blood plasma, in words [1]: no significant degradation could be detected over a time period of 6 days
half-life at […] [1, 2]: > 133 h
Ki (PDZ2 of PSD-95): 2.6 ± 0.13 µM
Ki (PDZ1-2 tandem of PSD-95): ~0.1 µM

CC(C)[C@H](NC(=O)[C@H](C)NC(=O)[C@@H](NC(=O)[C@H](CCC(=O)O)NCC1CCCCC1)C(C)O)C(=O)O (some centres unmarked) [Compound 55, N-Cyclohexylmethyl-ETAV]
Ki (PDZ3 of PSD-95): 21 ± 0.64 µM
fold increase in affinity (more potent) compared to NR2B peptide (1), PDZ1 (PDZ1 of PSD-95): ca. 19 fold
Ki (PDZ1 of PSD-95): 1 ± 0.24 µM

EMeTDV ([NMeE]TDV) [Compound 36]
affinity to PDZ2, in words (PDZ2 of PSD-95): only slightly less potent
fold increase in affinity (more potent) compared to NR2B peptide (1), PDZ1 (PDZ1 of PSD-95): ca. 3 fold

YGRKKRRQRRRKLSSIESDV [Tat-NR2B (3), reference compound] [listing 2 of 2 here]
Ki (PDZ1-2 tandem of PSD-95): 9.8 ± 0.35 µM

CC[C@H](C)[C@H](NC(=O)CCOCCOCCOCCOCCOCCOCCOCCC(=O)N[C@H](C(=O)N[C@@H](CCC(=O)O)C(=O)N[C@@H](CO)C(=O)N[C@@H](CC(=O)O)C(=O)N[C@H](C(=O)O)C(C)C)[C@@H](C)CC)C(=O)N[C@@H](CCC(=O)O)C(=O)N[C@@H](CO)C(=O)N[C@@H](CC(=O)O)C(=O)N[C@H](C(=O)O)C(C)C [(IESDV)2PEG6 (77), (IESDV)2PEG6]
degradation in human blood plasma, in words [1]: no significant degradation could be detected over a time period of 6 days
half-life at […] [1, 2]: > 133 h
Ki (PDZ1-2 tandem of PSD-95): ~0.1 µM

From patent publication US20160176924A1, “MODIFIED PEPTIDES AS POTENT INHIBITORS OF THE PSD-95/NMDA RECEPTOR INTERACTION” (priority 2008, published 2016)
